Test results reported in ChEMBL document CHEMBL3244078, “Synthesis and antihypertensive activity of novel 3-hydrazino-5-phenyl-1,2,4-triazines” (J Med Chem, 1979).
Activity calls are given as the source filed them. The calls are words filed in the database; no cut-off is given here.

How the values were obtained:
[1] = system: Rattus norvegicus; assay: Antihypertensive activity in spontaneously hypertensive rat assessed as drop in mean systolic blood pressure at 100 mg/kg, po after 24 hrs by tail cuff method relative to vehicle-treated control; assay type: functional
[2] = system: Rattus norvegicus; assay: Antihypertensive activity in spontaneously hypertensive rat assessed as drop in mean systolic blood pressure at 100 mg/kg, po after 4 hrs by tail cuff method relative to vehicle-treated control; assay type: functional
[3] = system: Rattus norvegicus; assay: Antihypertensive activity in spontaneously hypertensive rat assessed as drop in mean systolic blood pressure at 100 mg/kg, po followed by second dosing at 24 hrs measured after 48 hrs by tail cuff method relative to vehicle-treated control; assay type: functional
[4] = system: Rattus norvegicus; assay: Antihypertensive activity in spontaneously hypertensive rat assessed as drop in mean systolic blood pressure at 100 mg/kg, po followed by second dosing at 24 hrs measured after 28 hrs by tail cuff method relative to vehicle-treated control; assay type: functional
[5] = Toxicity in ip dosed CF-1 mouse after 48 hrs; conditions: in vivo

CC(=O)NNc1nncc(-c2ccc(C)cc2)n1.O
Activity ([1]; Artery): inactive | Activity ([2]; Artery): inactive | Activity ([3]; Artery): inactive | Activity ([4]; Artery): inactive | LD50 at 48 h [5]: > 300 mg/kg

CC(C)C(=O)NNc1nncc(-c2ccccc2)n1.Cl
Activity [1]: 46 mmHg | Activity [2]: 44 mmHg | Activity [3]: 83 mmHg | Activity [4]: 98 mmHg | LD50 at 48 h [5]: 178 mg/kg

COc1ccc(-c2cnnc(NN)n2)cc1
Activity [1]: 26 mmHg | Activity [2]: 48 mmHg | Activity [3]: 22 mmHg | Activity [4]: 38 mmHg | LD50 at 48 h [5]: 56 mg/kg

O=C(NNc1nncc(-c2ccccc2)n1)C1CCCCC1
Activity [1]: 51 mmHg | Activity [2]: 24 mmHg | Activity [3]: 79 mmHg | Activity [4]: 76 mmHg | LD50 at 48 h [5]: 237 mg/kg

CNNc1nncc(-c2cccc(Cl)c2)n1
Activity [1]: 35 mmHg | Activity [2]: 28 mmHg | Activity [3]: 51 mmHg | Activity [4]: 63 mmHg | LD50 at 48 h [5]: 237 mg/kg

Cl.O=C(Cc1ccccc1)NNc1nncc(-c2ccccc2)n1
Activity ([1]; Artery): inactive | Activity ([2]; Artery): inactive | Activity ([3]; Artery): inactive | Activity ([4]; Artery): inactive | LD50 at 48 h [5]: 237 mg/kg

CNNc1nncc(-c2ccc(C)cc2)n1
Activity ([1]; Artery): inactive | Activity ([2]; Artery): inactive | Activity ([3]; Artery): inactive | Activity ([4]; Artery): inactive | LD50 at 48 h [5]: 316 mg/kg

CNNc1nncc(-c2ccc(Cl)cc2)n1
Activity [1]: 12 mmHg | Activity [2]: 0 mmHg | Activity [3]: 53 mmHg | Activity [4]: 39 mmHg | LD50 at 48 h [5]: 316 mg/kg

CNNc1nncc(-c2ccccc2)n1
Activity [1]: 49 mmHg | Activity [2]: 0 mmHg | Activity [3]: 92 mmHg | Activity [4]: 56 mmHg | LD50 at 48 h [5]: 178 mg/kg

O=C(NNc1nncc(-c2ccccc2)n1)C(F)(F)F
Activity [1]: 29 mmHg | Activity [2]: 51 mmHg | Activity [3]: 88 mmHg | Activity [4]: 70 mmHg | LD50 at 48 h [5]: 178 mg/kg

O=C(NNc1nncc(-c2cccc(Cl)c2)n1)C(F)(F)F
Activity [1]: 0 mmHg | Activity [2]: 0 mmHg | Activity [3]: 59 mmHg | Activity [4]: 64 mmHg | LD50 at 48 h [5]: 237 mg/kg

NNc1nncc(-c2cccc(C(F)(F)F)c2)n1
Activity [1]: 0 mmHg | Activity [2]: 26 mmHg | Activity [3]: 40 mmHg | Activity [4]: 48 mmHg | LD50 at 48 h [5]: 316 mg/kg

NNc1nncc(-c2ccc(Cl)cc2)n1
Activity [1]: 61 mmHg | Activity [2]: 52 mmHg | Activity [3]: 87 mmHg | Activity [4]: 90 mmHg | LD50 at 48 h [5]: 237 mg/kg

O=C(NNc1nncc(-c2ccc(Cl)cc2)n1)C(F)(F)F
Activity [1]: 46 mmHg | Activity [2]: 30 mmHg | Activity [3]: 74 mmHg | Activity [4]: 92 mmHg | LD50 at 48 h [5]: 237 mg/kg

O=C(NNc1nncc(-c2ccccc2)n1)C(Cl)Cl
Activity [1]: 54 mmHg | Activity [2]: 33 mmHg | Activity [3]: 80 mmHg | Activity [4]: 106 mmHg | LD50 at 48 h [5]: 178 mg/kg

COc1ccc(-c2cnnc(NNC(C)=O)n2)cc1
Activity ([1]; Artery): inactive | Activity ([2]; Artery): inactive | Activity ([3]; Artery): inactive | Activity ([4]; Artery): inactive | LD50 at 48 h [5]: 237 mg/kg

CCC(=O)NNc1nncc(-c2ccc(Cl)cc2)n1
Activity [1]: 79 mmHg | Activity [2]: 47 mmHg | Activity [3]: 111 mmHg | Activity [4]: 107 mmHg | LD50 at 48 h [5]: 237 mg/kg

O=C(NNc1nncc(-c2ccccc2)n1)c1ccccc1
Activity ([1]; Artery): inactive | Activity ([2]; Artery): inactive | Activity ([3]; Artery): inactive | Activity ([4]; Artery): inactive | LD50 at 48 h [5]: > 300 mg/kg

NNc1nncc(-c2cccc(Cl)c2)n1
Activity [1]: 0 mmHg | Activity [2]: 0 mmHg | Activity [3]: 51 mmHg | Activity [4]: 55 mmHg | LD50 at 48 h [5]: 237 mg/kg

O=C(CCCl)NNc1nncc(-c2ccc(Cl)cc2)n1
Activity ([1]; Artery): inactive | Activity ([2]; Artery): inactive | Activity ([3]; Artery): inactive | Activity ([4]; Artery): inactive | LD50 at 48 h [5]: 237 mg/kg

Cc1ccc(-c2cnnc(NNC(=O)C(F)(F)F)n2)cc1
Activity ([1]; Artery): inactive | Activity ([2]; Artery): inactive | Activity ([3]; Artery): inactive | Activity ([4]; Artery): inactive | LD50 at 48 h [5]: > 300 mg/kg

Br.NC(Cc1ccccc1)C(=O)NNc1nncc(-c2ccccc2)n1.O (stereo unspecified)
Activity [1]: 38 mmHg | Activity [2]: 26 mmHg | Activity [3]: 82 mmHg | Activity [4]: 75 mmHg | LD50 at 48 h [5]: 178 mg/kg

Cc1ccc(-c2cnnc(NN)n2)cc1.O
Activity [1]: 28 mmHg | Activity [2]: 62 mmHg | Activity [3]: 38 mmHg | Activity [4]: 75 mmHg | LD50 at 48 h [5]: 224 mg/kg

NNc1nncc(-c2ccc(Cl)c(Cl)c2)n1
Activity ([1]; Artery): inactive | Activity ([2]; Artery): inactive | Activity ([3]; Artery): inactive | Activity ([4]; Artery): inactive | LD50 at 48 h [5]: > 300 mg/kg

Cc1ccc(-c2cnnc(NNC(=O)C34CC5CC(CC(C5)C3)C4)n2)cc1.Cl
Activity [1]: 0 mmHg | Activity [2]: 32 mmHg | Activity [3]: 30 mmHg | Activity [4]: 24 mmHg | LD50 at 48 h [5]: 216 mg/kg

O=C(CCCCl)NNc1nncc(-c2ccc(Cl)cc2)n1
Activity [1]: 25 mmHg | Activity [2]: 0 mmHg | Activity [3]: 73 mmHg | Activity [4]: 48 mmHg | LD50 at 48 h [5]: 237 mg/kg

Br.CC(N)C(=O)NNc1nncc(-c2cccc(Cl)c2)n1.O (stereo unspecified)
Activity ([1]; Artery): inactive | Activity ([2]; Artery): inactive | Activity ([3]; Artery): inactive | Activity ([4]; Artery): inactive | LD50 at 48 h [5]: 178 mg/kg

Cl.O=C(NNc1nncc(-c2ccc(Cl)cc2)n1)C(Cl)(Cl)Cl
Activity ([1]; Artery): inactive | Activity ([2]; Artery): inactive | Activity ([3]; Artery): inactive | Activity ([4]; Artery): inactive | LD50 at 48 h [5]: 237 mg/kg

CC(=O)NNc1nncc(-c2ccccc2)n1
Activity [1]: 94 mmHg | Activity [2]: 40 mmHg | Activity [3]: 104 mmHg | Activity [4]: 106 mmHg | LD50 at 48 h [5]: 178 mg/kg

Br.CC(C)C(N)C(=O)NNc1nncc(-c2ccc(Cl)cc2)n1.O (stereo unspecified)
LD50 at 48 h [5]: 178 mg/kg

CC(=O)NNc1nncc(-c2ccc(Cl)c(Cl)c2)n1
Activity ([1]; Artery): inactive | Activity ([2]; Artery): inactive | Activity ([3]; Artery): inactive | Activity ([4]; Artery): inactive | LD50 at 48 h [5]: 237 mg/kg

Br.CC(N)C(=O)NNc1nncc(-c2ccc(Cl)cc2)n1.O (stereo unspecified)
Activity [1]: 58 mmHg | Activity [2]: 44 mmHg | Activity [3]: 103 mmHg | Activity [4]: 91 mmHg | LD50 at 48 h [5]: 237 mg/kg

Cc1ccc(-c2cnnc(NNC(=O)Cc3ccccc3)n2)cc1
Activity ([1]; Artery): inactive | Activity ([2]; Artery): inactive | Activity ([3]; Artery): inactive | Activity ([4]; Artery): inactive | LD50 at 48 h [5]: 237 mg/kg

CCCCCC(=O)NNc1nncc(-c2ccccc2)n1.Cl
Activity [1]: 53 mmHg | Activity [2]: 53 mmHg | Activity [3]: 68 mmHg | Activity [4]: 81 mmHg | LD50 at 48 h [5]: 178 mg/kg

O=C(CCl)NNc1nncc(-c2ccccc2)n1
Activity [1]: 74 mmHg | Activity [2]: 63 mmHg | Activity [3]: 55 mmHg | Activity [4]: 101 mmHg | LD50 at 48 h [5]: 100 mg/kg
